From paper PMC4421829, “Design, Synthesis and Inhibitory Activity of Photoswitchable RET Kinase Inhibitors” (Scientific Reports, 2015) come the findings set out here.

This test addresses T1, RET (Homo sapiens, UniProt P07949).
T1 construct: RET tyrosine kinase domain (human recombinant RET expressed in Sf9 insect cells)
T1 sequence (P07949 724-1016 limits assumed): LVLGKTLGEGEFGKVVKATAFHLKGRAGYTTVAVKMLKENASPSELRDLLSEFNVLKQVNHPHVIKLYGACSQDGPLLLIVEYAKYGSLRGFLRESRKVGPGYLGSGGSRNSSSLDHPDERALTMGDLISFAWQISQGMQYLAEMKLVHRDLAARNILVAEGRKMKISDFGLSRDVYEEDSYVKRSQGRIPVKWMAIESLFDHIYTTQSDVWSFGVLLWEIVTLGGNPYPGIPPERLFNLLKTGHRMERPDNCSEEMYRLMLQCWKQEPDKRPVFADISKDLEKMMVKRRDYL
As to the kind of experiment: luminescent ATP-to-ADP conversion kinase assay (IGF1Rtide substrate, […] ATP), in the dark. The format is biochemical.

As usually defined, the IC50 is the point on the concentration scale where inhibition reaches its midpoint. Low values mean greater potency, high ones weaker potency.

The molecule `CC(C)n1nc(/N=N/c2ccccc2)c2c(N)ncnc21` [compound 4, E-4] showed an IC50 of 0.15 µM.
